Article PMC12669040, “Tumour-specific STING agonist synthesis via a two-component prodrug system” (Nature Chemistry, 2025)
Where “and” joins values, the source holds several entries; their conditions need not be identical. Identical values can stand only once. Like-named read-outs stand apart in the source and are kept apart here.

How the values were obtained:
[1] = molecular target: E. coli β-glucuronidase (Escherichia coli, UniProt P05804); details: pH 6.8
[2] = molecular target: T1, human β-glucuronidase (Homo sapiens, UniProt P08236); assay: Michaelis–Menten kinetics of β-GlcA-N1 cleavage; type: biochemical; details: for dilution-corrected deltaN1: replicates 1 and 2
T1 construct: purchased AcroBiosystems BEB-H52H3
T1 sequence (P08236 23-651): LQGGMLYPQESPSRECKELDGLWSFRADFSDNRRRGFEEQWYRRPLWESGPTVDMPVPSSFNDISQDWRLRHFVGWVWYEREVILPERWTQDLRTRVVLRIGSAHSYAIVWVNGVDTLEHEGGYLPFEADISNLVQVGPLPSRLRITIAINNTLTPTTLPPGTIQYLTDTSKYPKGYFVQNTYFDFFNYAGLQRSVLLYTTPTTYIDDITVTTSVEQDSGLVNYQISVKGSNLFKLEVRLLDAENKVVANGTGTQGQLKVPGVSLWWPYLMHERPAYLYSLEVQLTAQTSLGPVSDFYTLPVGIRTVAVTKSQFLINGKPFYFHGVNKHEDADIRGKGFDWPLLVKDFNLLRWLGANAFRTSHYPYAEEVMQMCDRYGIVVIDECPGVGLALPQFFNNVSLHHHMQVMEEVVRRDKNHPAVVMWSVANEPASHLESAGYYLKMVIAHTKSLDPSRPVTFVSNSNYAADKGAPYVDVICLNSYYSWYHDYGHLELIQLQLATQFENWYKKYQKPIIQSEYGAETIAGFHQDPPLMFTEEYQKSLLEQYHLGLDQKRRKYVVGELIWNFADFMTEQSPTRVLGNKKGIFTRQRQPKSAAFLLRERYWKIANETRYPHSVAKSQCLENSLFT
Description: Human β-glucuronidase (AcroBiosystems BEB-H52H3) was reconstituted in deionized water to a concentration of 1 mg ml^−1. The enzyme stock solution was further diluted in assay buffer (0.2 M acetate pH 4.5) to 10 μg ml^−1 (134 nM). β-GlcA-N1 (50 mM DMSO stock) was twofold serially diluted in assay buffer from 5 to 0.078 mM. The enzyme solution and diluted β-GlcA-N1 were incubated in a transparent 96-well plate and incubated at 37 °C until thermo equilibrium was reached. Then, 100 µl of β-GlcA-N1 at various concentrations was mixed with 100 µl of β-glucuronidase using a multichannel pipette, resulting in the following initial condition: [β-GlcA-N1] = 2.5, 1.25, 0.62, 0.31, 0.16, 0.08 and 0.04 mM; [β-glucuronidase] = 67 nM; 5% DMSO (v/v). The reactions were incubated at 37 °C. At 30-min and 60-min timepoints, a 50-µl portion was withdrawn from each reaction mixture and mixed with 50 µl of quenching buffer (1 M sodium carbonate, 1 mM TCEP). The concentration of liberated N1 was determined by comparing the absorbance of each quenched reaction at 410 nm to a calibration curve of purified N1. Reaction velocities were calculated from the slopes of [N1] versus time plots. The velocity versus [β-GlcA-N1] plot was then fitted with the standard Michaelis–Menten kinetic model (GraphPad Prism).

[3] = system: CT26mβGUS tumours; assay: CT26mβGUS syngeneic mouse tumour model; details: single component alone
[4] = system: MC38 tumours; details: for Tumor Size: individual mice, * = excluded once a death was recorded in the group
[5] = Stability test in human plasma; type: in vitro ADME; details: 48 h, 37 °C
Description: Extended Data Fig. 6 Stability test of β-GlcA-N1 (1 mM) in human plasma. At the indicated time point, an 80 µL aliquot was loaded onto an Agilent Bond Elut solid phase extraction column (C18, 3 mL bed volume). The collected eluent was lyophilized, redissolved in a 50% (v/v) acetonitrile in water (0.1% v/v formic acid), and analyzed by LC-MS. TEXT PRINTED IN THE PICTURE: β-GlcA-N1: integration value: 91206 (t = 0 hr, human plasma); integration value: 84431 (t = 48 hr, 37 °C, human plasma) | no label printed: exact mass: 502.06 | no label printed: exact mass: 309.02 DOUBTS OF THE COPYIST ABOUT THIS PICTURE: The name β-GlcA-N1 is printed only at the peak in the upper chromatogram. The lower chromatogram's integration value (84431) is assigned to it as the same peak. / The two drawn structures have no printed label. Their exact masses are given with an empty substance label.

[6] = system: CT26mβGUS tumours; details: mouse, in vivo
[7] = system: THP-1 cells; assay: Dilution limits of N1/E4 combination to activate THP-1 cells (IFN-β ELISA); details: IFN-β secretion, 6 h, single component
[8] = LC-MS analysis of the N1–E4 reaction in the presence of glutathione; type: physicochemical; details: 50 μM N1 + 50 μM E4, 1 mM glutathione, pH 7.0, 37 °C, 2 h
Description: Extended Data Fig. 5 LC-MS analysis of the reaction between N1 and E4 in the presence of glutathione (1 mM). N1 (50 μM) and E4 (50 μM) were reacted at neutral pH (25 mM HEPES pH 7.0, 150 mM NaCl) and in the presence of reduced glutathione (1 mM). The reaction mixture was incubated at 37 °C for 2 h. No glutathione-adduct of E4 was identified. TEXT PRINTED IN THE PICTURE: no label printed: exact mass: 340.04 | no label printed: exact mass: 618.05

Sequence of E. coli β-glucuronidase (P05804 whole entry): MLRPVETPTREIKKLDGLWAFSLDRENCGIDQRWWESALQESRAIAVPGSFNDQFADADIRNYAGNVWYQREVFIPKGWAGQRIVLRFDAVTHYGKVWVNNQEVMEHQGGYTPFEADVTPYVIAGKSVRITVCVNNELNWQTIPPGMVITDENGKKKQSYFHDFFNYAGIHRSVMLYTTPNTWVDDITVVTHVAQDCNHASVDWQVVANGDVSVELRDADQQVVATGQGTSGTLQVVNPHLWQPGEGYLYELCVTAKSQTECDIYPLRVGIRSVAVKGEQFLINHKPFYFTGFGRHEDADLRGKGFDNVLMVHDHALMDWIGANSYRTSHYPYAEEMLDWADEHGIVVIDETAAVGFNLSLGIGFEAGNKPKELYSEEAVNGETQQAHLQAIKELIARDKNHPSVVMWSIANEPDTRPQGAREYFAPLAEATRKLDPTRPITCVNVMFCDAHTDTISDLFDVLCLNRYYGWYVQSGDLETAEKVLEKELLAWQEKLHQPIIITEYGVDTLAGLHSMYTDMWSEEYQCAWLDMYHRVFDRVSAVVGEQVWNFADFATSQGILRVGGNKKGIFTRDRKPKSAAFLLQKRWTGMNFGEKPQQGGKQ

| SMILES | stability in phosphate buffer without added enzyme [1] | kcat ([2]; Vmax / enzyme (6.71141e-8 M)) | dilution-corrected deltaN1 ([2]; substrate conc. 0.0390625 mM) | dilution-corrected deltaN1 ([2]; substrate conc. 0.078125 mM) | dilution-corrected deltaN1 ([2]; substrate conc. 0.15625 mM) | dilution-corrected deltaN1 ([2]; substrate conc. 0.3125 mM) | dilution-corrected deltaN1 ([2]; substrate conc. 0.625 mM) | dilution-corrected deltaN1 ([2]; substrate conc. 1.25 mM) | dilution-corrected deltaN1 ([2]; substrate conc. 2.5 mM) | body weight [3] | Tumor Size ([4]; day 23) | Tumor Size ([4]; day 25) | Tumor Size ([4]; day 30) | Tumor Size ([4]; day 33) | Survival: Days ([4]; mouse, in vivo) | Survival: death event (1 denotes a death event) ([4]; mouse, in vivo) | fraction remaining intact in human plasma [5] | body weight [6] | concentration up to which no STING activation was shown (alone) [7] | glutathione adduct formation [8] |
| --- | --- | --- | --- | --- | --- | --- | --- | --- | --- | --- | --- | --- | --- | --- | --- | --- | --- | --- | --- | --- |
| COc1cc2sc(C(=O)CCC(=O)O)cc2cc1SCO[C@@H]1O[C@H](C(=O)O)[C@@H](O)[C@H](O)[C@H]1O [β-GlcA-N1] | remained stable | 0.4762 | 4.272e-06 mM/s and 3.586e-06 mM/s | 6.962e-06 mM/s and 7.225e-06 mM/s | 1.1761e-05 mM/s and 1.16e-05 mM/s | 1.598e-05 mM/s and 1.529e-05 mM/s | 2.231e-05 mM/s and 1.587e-05 mM/s | 2.547e-05 mM/s and 2.51e-05 mM/s | 3.022e-05 mM/s and 2.88e-05 mM/s | no significant losses were observed | 113* mm^3 and 189.9* mm^3 | 125.8124* mm^3 and 301.5* mm^3 | 445.0408* mm^3 and 632.5* mm^3 | 1167* mm^3 and 1562* mm^3 | 17 days and 33 days and 21 days | 1 | more than 90% | – | – | – |
| COc1cc2sc(C(=O)CCC(=O)O)cc2cc1SCCCl [Compound E4] | most E4 underwent hydrolysis | – | – | – | – | – | – | – | – | – | – | – | – | – | – | – | – | no significant losses were observed | > 64 µM | No glutathione–E4 adduct was detected |
